Where two headings read alike, the source gives them in different places.

Data set [1] concerns the target T1, hCB2 (Homo sapiens, UniProt P34972). Briefly: Binding affinity hCB2, [3H]-CP-55,940 displacement. The protocol:
(§1) Measurement of Affinity. The binding studies were carried out in accordance with the protocols described by El Bakali et al. (El Bakali, J.; Muccioli, G. G.; Renault, N.; Pradal, D.; Body-Malapel, M.; Djouina, M.; Hamtiaux, L.; Andrzejak, V.; Desreumaux, P.; Chavatte, P.; Lambert, D. M.; Millet, R. 4-Oxo-1,4-Dihydropyridines as Selective CB2 Cannabinoid Receptor Ligands: Structural Insights into the Design of a Novel Inverse Agonist Series. J. Med. Chem. 2010, 53, 7918-7931) but applying a small modification. Briefly, the [3H]-CP-55,940 (0.5 nM) chosen as a radioligand for the CB1 and CB2 human receptors is added to 6 μg of membranes resuspended in 550 μl (final volume) of buffer (20 mM Hepes, 5 mM MgCl2, 1 mM EDTA, 0.3% bovine serum albumin, pH 7.4). After 1 hour at 30° C., incubation is stopped and the solution is quickly filtered on Harvester, through the “Unifilter 96 (PerkinElmer)” filter previously saturated with bonding buffer (20 mM Hepes, 5 mM MgCl2, 1 mM EDTA, 0.3% bovine serum albumin, pH 7.4), and then washed 20 times with iced binding buffer without serum albumin. The radioactivity of the filters was measured using the “TopCount NXT Microplate Scintillation Counter (PerkinElmer)” after addition of 60 μl of “MicroScint 40 (PerkinElmer)” scintillation liquid. The experiments were carried out in triplicate. The non-specific binding was determined in the presence of 5 μM (R)-(+)-WIN 55,212-2 (Sigma).
(§2) Analysis of the Data. The values of Ki and EC50 were determined by non-linear regression carried out by the “GraphPad Prism 5.0” program (GraphPad Software, San Diego). The statistical analysis of the results of the [^35S]-GTPγS dosing was carried out by means of the “Student” test.

The target in a further data set is hCB1 (Homo sapiens, UniProt P21554). Briefly: Binding affinity hCB1, [3H]-CP-55,940 displacement. The protocol:
as §1, §2

For data set [2], the target named is T1, hCB2. Kind of data set: [35S]-GTPγS functional activity (hCB2). The class given is biochemical. The protocol:
Dosing of [^355]-GTPγS. The studies were carried out at 30° C. in tubes containing 10 μg of protein in 0.5 ml (final volume) of buffer (20 mM Hepes, 10 mM MgCl2, 100 mM NaCl, 0.1% bovine serum albumin, pH 7.4) supplemented with 30 μm of GDP. The dosing was initiated by the addition of [^35S]-GTPγS (0.1 nM, final concentration). After 1 hour at 30° C., the incubation was stopped and the solution was quickly filtered on the “Unifilter-96 GF/B” filter and washed 20 times with iced bonding buffer. The radioactivity on the filters was counted as mentioned above. The non-specific binding was measured in the presence of 100 μm of Gpp(NH)p. The results were expressed in EC50 (nM) and Emax (%).
as §2
(GTPγS resists hydrolysis and so accumulates on activated G proteins.)

The subject of the next data set is colitis caused by TNBS. Kind of data set: Model of colitis caused by TNBS in mice. Format: in vivo, C57B16 male mice. The protocol: C57B16 male mice (n=10 per group) have free access to food and water. To cause colitis, the mice are anaesthetised for 90-120 minutes by subcutaneous administration of zylasine-ketamine (50 mg/kg) diluted in physiological serum, then receive an intrarectal administration of TNBS (40 μl, 150 mg/kg) diluted in a 1:1 mixture of 0.9% NaCl and 100% ethanol. The novel CB2 agonists are diluted in 0.5% carboxymethyl cellulose (Sigma-Aldrich, Saint Quentin Fallavier, France) for a dose administered by gavage of 0.1, 1 and 10 mg/kg body weight/day. JWH133, a known CB2 agonist (Kimball E S, Schneider C R, Wallace N H, Hornby P J. Agonists of cannabinoid receptor 1 and 2 inhibit experimental colitis induced by oil of mustard and by dextran sulfate soldium. Am. J. Physiol. Gastrointest. Liver Physiol., 2006, 291, G364-71.), is administered intraperitoneally at a dose of 0.1 mg/kg body weight/day. The animals are euthanised 5 days after the administration of TNBS. The intensity of the colitis at macroscopic and histological levels is assessed in each colon blind by 2 investigators. The scale of the macroscopic scores of the lesions ranges from 0 to 10 according to characteristics reflecting inflammation, such as hyperaemia, thickening of the intestinal wall and the extent of ulcerations. A localised colon biopsy precisely 2 cm above the anal channel is used for histological analysis following a May-Grunwald Giemsa colouring. The histological score varies between 0 and 6 and takes into account the degree of inflammatory infiltrate, the presence of erosion, ulcerations and necrosis of the mucosa, and the level of extension of the lesions in depth and on the surface reached. Two other colon biopsies are frozen and used to analyse the levels of mRNA of inflammatory cytokines by PCR in real time. The total mRNAs of the colon are extracted using the Nucleospin RNAII kit (Macherey Nagel, Hoerdt, France) and then retrotranscripts using the High-Capacity cDNA Reverse Transcription Kit (Applied Biosystems), Foster City, USA). The real-time PCR is carried out with SYBR Green (Applied Biosystems, Foster City, USA). The specific primers for TNF-alpha (TNF-alpha F and TNF-alpha R), IL-1 beta (IL1-beta F and IL1-beta R) and POLR2A (POLR2A F and POLR2A R) as reference gene were chosen using the Primer Express 2 software (Applied Biosystems, Foster City, USA). For the graphical representation of the quantitative PCR data, the values of Ct obtained for the target genes are compared with those of the reference gene, using the ΔΔCt method, that is to say: ΔΔCt=(Ct of the target gene−Ct of the reference gene) treated mouse−(Ct of the target gene−Ct of the reference gene) non-treated mouse, and the final data are derived from 2-ΔΔCt.
Compound 26 was evaluated in mice in a model of colitis caused by TNBS in accordance with a described protocol (Desreumaux, P.; Dubuquoy, L.; Nutten, S.; Peuchmaur, M.; Englaro, W.; Schoonjans, K.; Derijard, B.; Desvergne, B.; Wahli, W.; Chambon, P.; Leibowitz, M. D.; Colombel, J. F.; Auwerx, J. Attenuation of Colon Inflammation Through Activators of the Retinoid X Receptor (RXR)/Peroxisome Proliferator-Activated Receptor Gamma (PPARgamma) Heterodimer. A Basis for New Therapeutic Strtegies. J. Exp. Med. 2001, 193, 827-838). Thus compound 26 was administered orally in carboxymethyl cellulose (CMC) each day at a dose of 0.1, 1 and 10 mg/kg for seven days, and two days before the induction of colitis. A control with an administration of CMC alone was effected.

[3] abbreviates: Table 2, radioligand [3H]-CP-55,940 0.5 nM, read-out: Binding affinity hCB2 Ki.
Setting [4] is: Table 2, radioligand [3H]-CP-55,940 0.5 nM, read-out: Binding affinity hCB1 Ki.
Where [5] appears, read: Table 3, radioligand [3H]-CP-55,940 0.5 nM, read-out: Binding affinity hCB1 Ki.

Sequence of hCB1 (P21554 whole entry): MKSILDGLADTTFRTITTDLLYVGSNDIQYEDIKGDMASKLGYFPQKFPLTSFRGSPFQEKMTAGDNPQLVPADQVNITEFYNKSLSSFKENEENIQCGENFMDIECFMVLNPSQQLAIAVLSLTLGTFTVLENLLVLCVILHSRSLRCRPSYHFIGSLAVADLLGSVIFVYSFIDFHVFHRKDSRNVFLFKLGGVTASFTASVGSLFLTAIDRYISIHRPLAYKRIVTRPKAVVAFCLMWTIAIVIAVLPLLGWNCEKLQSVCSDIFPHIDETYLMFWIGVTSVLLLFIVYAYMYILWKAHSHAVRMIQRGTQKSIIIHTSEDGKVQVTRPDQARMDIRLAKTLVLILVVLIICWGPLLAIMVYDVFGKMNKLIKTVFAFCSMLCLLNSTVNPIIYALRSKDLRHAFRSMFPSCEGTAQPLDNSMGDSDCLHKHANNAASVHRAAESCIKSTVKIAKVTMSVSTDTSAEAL
T1 sequence (P34972 whole entry): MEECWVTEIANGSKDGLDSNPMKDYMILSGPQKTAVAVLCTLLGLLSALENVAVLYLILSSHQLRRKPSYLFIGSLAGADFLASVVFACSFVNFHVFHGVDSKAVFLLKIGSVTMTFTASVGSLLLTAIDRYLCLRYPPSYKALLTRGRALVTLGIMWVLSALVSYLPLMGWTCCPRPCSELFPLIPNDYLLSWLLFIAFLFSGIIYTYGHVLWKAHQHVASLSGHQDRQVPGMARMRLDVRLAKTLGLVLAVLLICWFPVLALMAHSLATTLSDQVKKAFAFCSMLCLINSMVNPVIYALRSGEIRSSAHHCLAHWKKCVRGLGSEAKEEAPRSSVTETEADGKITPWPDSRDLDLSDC

Take `CCCCCn1cc2c(=O)[nH]nc-2c2ccccc21` [Compound 8, 5-Pentyl-2H-pyrazolo[4,3-c]quinolin-3(5H)-one]: the Ki on hCB2 [1] (setting [3]) and on hCB1 (setting [4]) was over 3000 nM each time.

Take `CCCCCn1cc2c(=O)n(C3CCCCC3)nc-2c2ccccc21` [Compound 16, 2-Cyclohexyl-5-pentyl-2H-pyrazolo[4,3-c]quinolin-3 (5H)-one]: the Ki at hCB2 [1] (setting [3]) is 18.8 ± 3.3 nM; at hCB1, over 3000 nM. In addition, the EC50 on hCB2 [2] turned out to be 204 ± 41 nM. Besides, the Emax on hCB2 [2] came out at 160 ± 3%.

As for `CCCCCn1cc2c(=O)n(Cc3ccccc3)nc-2c2ccccc21` [Compound 19, 2-Benzyl-5-pentyl-2H-pyrazolo[4,3-c]quinolin-3(5H)-one], the Ki at hCB2 [1] and on hCB1 was over 3000 nM in each case.

Turning to `CCCCCn1nc2c3ccccc3n(CCCCC)cc-2c1=O` [Compound 21, 2,5-Dipentyl-2H-pyrazolo[4,3-c]quinolin-3(5H)-one], the Ki at hCB2 [1] (setting [3]) is 4.3 ± 0.3 nM; on hCB1, over 3000 nM.

`CCCCCCn1nc2c3ccccc3n(CCCCC)cc-2c1=O` [Compound 22, 2-Hexyl-5-pentyl-2H-pyrazolo[4,3-c]quinolin-3(5H)-one]: the Ki on hCB2 [1] (setting [3]) is 7.7 ± 0.3 nM; on hCB1, over 3000 nM.

In the case of `CCCCCn1cc2c(=O)n(CC3CC3)nc-2c2ccccc21` [Compound 23, 2-(Cyclopropylmethyl)-5-pentyl-2H-pyrazolo[4,3-c]quinolin-3(5H)-one], the Ki on hCB2 [1] (setting [3]) is 10.4 ± 3.1 nM; at hCB1 (setting [4]), over 3000 nM.

`CCCCCn1cc2c(=O)n(CC3CCCCC3)nc-2c2ccccc21` [Compound 24, 2-(Cyclohexylmethyl)-5-pentyl-2H-pyrazolo[4,3-c]quinolin-3(5H)-one]: on hCB2 [1] (setting [3]), the inhibition constant (Ki) amounted to 0.62 ± 0.03 nM. This compound came in with a Ki on hCB1 of over 3000 nM. On hCB2 [2], this compound registered an EC50 of 14.3 ± 4 nM and an Emax of 149 ± 4%.

`CCCCCn1cc2c(=O)n(CCC3CCCCC3)nc-2c2ccccc21` [Compound 25, 2-(2-Cyclohexylethyl)-5-pentyl-2H-pyrazolo[4,3-c]quinolin-3(5H)-one]: at hCB2 [1] (setting [3]), the Ki was found to be 8 ± 0.4 nM. For the same compound, the Ki at hCB1 is over 3000 nM. Also, on hCB2 [2], the EC50 was 5.4 ± 1.1 nM and the maximal effect (Emax) was determined as 141 ± 3%.

For the compound `CCCCCn1cc2c(=O)n(CC34CC5CC(CC(C5)C3)C4)nc-2c2ccccc21` [Compound 26, 2-(1-Adamantylmethyl)-5-pentyl-2H-pyrazolo[4,3-c]quinolin-3(5H)-one], the Ki on hCB2 [1] (setting [3]) stood at 0.39 ± 0.03 nM. At hCB2 [2], this compound registered a 50% effective concentration (EC50) of 64 ± 10 nM and an Emax of 163 ± 4%. The “Overall efficacy against colitis” value in the data set with colitis caused by TNBS (oral administration) is “effective in mice against colitis in a dose-dependent manner”. For the same compound, in the data set on colitis caused by TNBS (oral daily treatment 0.1, 1 and 10 mg/kg, five days after TNBS), the “Loss of body weight” value is on record as “attenuates in a dose-dependent manner the loss of weight”. In the data set with colitis caused by TNBS (oral, 10 mg/kg, scale 0 to 10, printed as 1.7 versus 1.9), the Macroscopic score was found to be 1.7. Further, the “Mortality / survival rate” value with colitis caused by TNBS (oral, 0.1, 1 and 10 mg/kg daily, versus untreated mice (FIG. 1A)) is “reduction in mortality”. Further, the “Macroscopic score” value in the data set with colitis caused by TNBS (oral, 0.1, 1 and 10 mg/kg, colon after euthanasia (FIG. 2A)) was “reduces the macroscopic scores (FIG. 2A) in a dose-dependent manner”. Further, in the data set with colitis caused by TNBS (oral, histological score scale 0 to 6 (FIG. 2B)), the “Attenuation of histological scores” value is 65%.

Take `CCCCCn1cc2c(=O)n(CCC34CC5CC(CC(C5)C3)C4)nc-2c2ccccc21` [Compound 27, 2-(1-Adamantylethyl)-5-pentyl-2H-pyrazolo[4,3-c]quinolin-3 (5H)-one]: the Ki on hCB2 [1] (setting [3]) came to 26.1 ± 3.8 nM.

The compound `CCCCn1cc2c(=O)n(CC3CCCCC3)nc-2c2ccccc21` [Compound 40, 2-(Cyclohexylmethyl)-5-butyl-2H-pyrazolo[4,3-c]quinolin-3(5H)-one] returned a melting point of 216 °C. The compound further gave a Ki at hCB2 [1] of 14.8 nM. For the same compound, at hCB1 (setting [5]), the inhibition constant (Ki) was over 10000 nM.

`CCCCCCn1cc2c(=O)n(CC3CCCCC3)nc-2c2ccccc21` [Compound 41, 2-(Cyclohexylmethyl)-5-hexyl-2H-pyrazolo[4,3-c]quinolin-3(5H)-one] registered a melting point of 193 °C. For the same compound, the inhibition constant Ki on hCB2 [1] was determined as 31.1 nM. For the same compound, at hCB1 (setting [5]), the Ki was over 10000 nM.

With `O=c1c2cn(CC3CCOCC3)c3ccccc3c-2nn1CC1CCCCC1` [Compound 42, 2-(Cyclohexylmethyl)-5-(tetrahydro-2H-4-pyranylmethyl)-pyrazolo[4,3-c]quinolin-3(5H)-one], the melting point was over 250 °C. At hCB2 [1], the Ki is 5.32 nM. In addition, on hCB1, the Ki was 520 nM.

With `O=c1c2cn(CCCC(F)(F)F)c3ccccc3c-2nn1CC1CCCCC1` [Compound 43, 2-(Cyclohexylmethyl)-5-(4,4,4-trifluorobutyl)-2H-pyrazolo[4,3-c]quinolin-3(5H)-one], the melting point was found to be 224 °C. Further, the Ki on hCB2 [1] was 6.17 nM. Besides, on hCB1 (setting [5]), the Ki is 1680 nM.

What is called Ki is a measure of affinity in units of concentration, obtained from inhibition or displacement. One may read the EC50 as the concentration at which the effect is half-maximal. One may read the Emax as the maximal effect, on the per cent scale that the assay sets. As a reminder, the melting point is the temperature, or range, at which the solid turns liquid.

These data come from patent US20170137419A1, “DERIVATIVES OF 2H-PYRAZOLO[4,3-C]QUINOLIN-3(5H)-ONE AND USE THEREOF” (UNIVERSITE DU DROIT ET DE LA SANTE LILLE 2, priority 2014, published 2017).
